Reference: the CATMoS acute toxicity set (Mansouri et al. 2021)

Experiment: GHS categories as the set defines them, by LD50: 1 up to 5, 2 up to 50, 3 up to 300, 4 up to 2000, 5 above 2000 mg/kg
Conditions: rat; in vivo; po

| Compound | GHS category |
| --- | --- |
| O=C=Nc1cc(Cl)cc(Cl)c1 | 5 |
| CCC(=O)OCC(=O)[C@@]1(OC(=O)CC)[C@@H](C)C[C@H]2[C@@H]3CCC4=CC(=O)C=C[C@]4(C)[C@@]3(Cl)[C@@H](O)C[C@@]21C | 5 |
| CC1CC(OC(=O)C(C)Oc2cccc(C(F)(F)F)c2)CC(C)(C)C1 (stereo unspecified) | 5 |
| CC(C)(C)C(=O)OCC(=O)c1ccccc1 | 5 |
| CCOC(=O)CSc1nc(C(C)(C)C)nn1C(=O)N(C)C | 3 |
| CC(O)CSCCCCCCCCC(C)(C)C (stereo unspecified) | 5 |
| Nc1ccc(C(=O)c2ccccc2)cc1O | 5 |
| CCOC(=O)C1(OC(=O)Cc2ccc(Cl)cc2Cl)CCCCC1 | 5 |
| CSc1nc(N)c2c(C)coc2n1 | 5 |
| C=CC(C)(CCC=C(C)C)OC=O (stereo unspecified) | 5 |
| CCCOC(=O)[C@H](C)O | 5 |
| OC(c1ccccc1)c1cccnc1Cl (stereo unspecified) | 5 |
| O=C1OC(=O)c2c(Cl)c(Cl)c(Cl)c(Cl)c21 | 5 |
| Oc1ccc2c(c1)CCN(c1ccccc1)C2c1ccc(F)cc1 (stereo unspecified) | 4 |
| CCCCCCCCCCCCN1CCCCCC1=O | 5 |
| CCCCOC(=O)CCP1(=O)Oc2ccccc2-c2ccccc21 (stereo unspecified) | 5 |
| CN(CCOP(=O)(O)O)C(=N)N | 5 |
| CCCCCCCC/C=C\CCCCCCCC(=O)OCC | 5 |
| CCCC1(C)COC(Cn2cncn2)(c2cc3ccccc3o2)OC1 (stereo unspecified) | 4 |
| CCOC(=O)C(C)(C)Oc1ccc2c(c1)C=C(n1ccnc1)CC2 | 5 |
| CC(=O)Oc1ccc(C(c2ccc(OS(=O)(=O)O)cc2)c2ccccn2)cc1 (stereo unspecified) | 5 |
| c1ccc2oc(-c3ccc(-c4nc5ccccc5o4)s3)nc2c1 | 5 |
| CC(=O)N(C)C(=O)Oc1cccc2c1OC1(CCCCC1)O2 | 4 |
| CC(CCC(=O)NCCS(=O)(=O)O)C1CCC2C3C(O)CC4CC(O)CCC4(C)C3CCC12C (stereo unspecified) | 5 |

| Compound | GHS category |
| --- | --- |
| CCC(CC)CC1(C(=O)O)CCCCC1 | 4 |
| C[C@H]1O[C@]2(CS1)CN1CCC2CC1 | 3 |
| CCOP(OCC)c1ccccc1 | 5 |
| CC(C)CCCC(C)CCCC(C)CCCCC(C)CCCC(C)CCCC(C)C (stereo unspecified) | 4 |
| O=C(c1ccc(Cl)c(Cl)c1)c1ccccc1-c1ncc[nH]1 | 4 |
| COP(=O)(NC(=O)C(C)C)SC (stereo unspecified) | 4 |
| COc1nc(C)nc(NC(=O)NS(=O)(=O)c2ccccc2OCCCl)n1 | 5 |
| CC(C)CCCCCCCCCCCCCCC(=O)OC(C)C | 5 |
| CCOC(=O)C1CCC(C(=O)OCC)CC1 (stereo unspecified) | 5 |
| O=S(=O)(O)OC1C(OS(=O)(=O)O)C(OS(=O)(=O)O)C(OS(=O)(=O)O)C(OS(=O)(=O)O)C1OS(=O)(=O)O (stereo unspecified) | 5 |
| CCCCCCCCCCCCCCCCCC(=O)OC | 5 |
| CCC(=O)N[C@H]1CCc2nc(N)sc2C1 | 5 |
| CC(=O)OC1CCCCC1C (stereo unspecified) | 5 |
| CN1C(C(=O)Nc2ccccc2)=C(O)c2ccccc2S1(=O)=O | 5 |
| COC(=O)/C=C(/C)N[C@@H](C(=O)O)c1ccc(O)cc1 | 5 |
| NCCCCCCCCCCCC(=O)O | 5 |
| C[Si](C)(C)C | 5 |
| Cc1ccc(S(=O)(=O)NCCCCCC(=O)O)cc1 | 5 |
| FC(F)(F)c1cccc(-n2nc(OCCN3CCCCC3)c3cccnc32)c1 | 4 |
| Cc1ccc2oc(C=Cc3nc4cc(C)ccc4o3)nc2c1 | 5 |
| O=CCC(=O)c1ccc(C2CCCCC2)cc1 | 4 |
| Cc1cccc(Nc2ccncc2S(=O)(=O)NC(=O)NC(C)C)c1 | 5 |
| CCCc1c(Cc2ccc(-c3sccc3-c3nn[nH]n3)cc2)c(=O)nc2nc(C)[nH]n12 | 4 |
| Cc1cccc2ncc(C(=O)NC3CCCCC3)c(=O)n12 | 3 |

| Compound | GHS category |
| --- | --- |
| CCOc1cc(NCCCN(C)C)c(=O)n(-c2ccccc2)n1 | 5 |
| NS(=O)(=O)c1cc2c(cc1Cl)NC(C1CC3C=CC1C3)NS2(=O)=O (stereo unspecified) | 5 |
| CC(=O)Nc1ccc(S(=O)(=O)O)c2cc(S(=O)(=O)O)c(/N=N/c3ccc(/N=N/c4ccc(S(=O)(=O)O)cc4)c4ccc(S(=O)(=O)O)cc34)c(O)c12 | 5 |
| O=C(OCCCc1ccccc1)c1ccccc1 | 5 |
| C=C(C)C(=O)OCCOCCOCCCC | 5 |
| Nc1ccc2cc(S(=O)(=O)O)c(/N=N/c3ccc(-c4ccc(/N=N/c5ccc(O)c(C(=O)O)c5)cc4)cc3)c(O)c2c1 | 5 |
| O=C1CCCCCCCCCOCCCCCO1 | 5 |
| CCCCNC1CC(C)(C)NC(C)(C)C1 | 4 |
| CCCCCCCCC=CCCCCCCCC(=O)OC(C)C | 5 |
| CCCCCCCC(=O)OCCC(C)O (stereo unspecified) | 2 |
| O=c1nc(Cl)nc(Cl)[nH]1 | 5 |
| CCCCCCNC(=O)c1cnc2cccc(C)n2c1=O | 3 |
| CC(CCc1ccccc1)NC(C)C(O)c1ccc(O)cc1 (stereo unspecified) | 5 |
| CCCCCC1C(=O)CCC1CC(=O)OC (stereo unspecified) | 5 |
| OC1C(Cl)(Cl)C(=C(Cl)Cl)C2(OC2Cl)C1(Cl)Cl (stereo unspecified) | 4 |
| C=C(C)C(=O)OCC[N+](C)(C)C | 5 |
| CC(C)=CCC/C(C)=C\COC(=O)C(C)C | 5 |
| CC#CCC(C)[C@H](O)/C=C/C1[C@H](O)C[C@@H]2C/C(=C\CCCC(=O)O)C[C@H]12 (stereo partly specified) | 3 |
| COc1ccc2c(c1)CCN(c1ccccc1)C2c1ccccc1[N+](=O)[O-] (stereo unspecified) | 4 |
| CS(=O)(=O)c1ccc([C@@H](O)[C@@H](CO)NC(=O)C(Cl)Cl)cc1 | 5 |
| OC(OCC(COC(O)C(Cl)(Cl)Cl)(COC(O)C(Cl)(Cl)Cl)COC(O)C(Cl)(Cl)Cl)C(Cl)(Cl)Cl (stereo unspecified) | 4 |
| CCOC(=O)c1cnn(-c2ccccc2)c1N | 4 |
| CC(C)OC(=O)C(C)(C)Oc1ccc(C(=O)c2ccc(Cl)cc2)cc1 | 5 |
| COc1cc(OC)nc(N=C(O)NS(=O)(=O)c2c(Cl)nc3ccccn23)n1 | 5 |

| Compound | GHS category |
| --- | --- |
| CCCCCCCCCCOC1OC(CO)C(O)C(O)C1O (stereo unspecified) | 5 |
| CCc1ccccc1OP(=O)(Oc1ccccc1CC)Oc1ccccc1CC | 5 |
| C=COC(=O)C1=C(C)N[C@@](C)(c2ccc(N3CCN(C(c4ccccc4)c4ccccc4)CC3)cc2)C(C(=O)OC)C1c1cccc([N+](=O)[O-])c1 (stereo partly specified) | 4 |
| O=C(OOC(=O)c1ccc(Cl)cc1Cl)c1ccc(Cl)cc1Cl | 5 |
| O=C(NC(=O)C(Cl)(Cl)Cl)NS(=O)(=O)c1ccccc1 | 5 |
| O=C1c2ccccc2C(=O)c2c(NCCO)ccc(NCCO)c21 | 5 |
| Nc1ccc(-c2ccc(N)c3c2C(=O)c2ccccc2C3=O)c2c1C(=O)c1ccccc1C2=O | 5 |
| CCOC(=O)C(C)(C)c1ccccc1 | 5 |
| Nc1ccc2oc(=O)[nH]c2c1 | 4 |
| O=C(COCCOCCOCC(=O)Nc1c(I)cc(I)c(C(=O)O)c1I)Nc1c(I)cc(I)c(C(=O)O)c1I | 5 |
| Nc1ncnc2c1ncn2[C@@H]1O[C@H](CO)[C@@H](O)[C@@H]1O | 5 |
| CCO[C@@H]1O[C@H](C(COCc2ccccc2)OCc2ccccc2)[C@H](OCc2ccccc2)[C@H]1O (stereo partly specified) | 5 |
| CCOCC=C(C)CCC=C(C)C | 5 |
| Cc1c(CC(=O)O)c2c(n1CC(C)C)CC(C)(C)CC2=O | 5 |
| O=C(O)c1ccc2ccccc2c1 | 5 |
| O=C(Nc1ccc(NC(=O)c2cc3ccccc3c(N=Nc3cc(Cl)ccc3Cl)c2O)c(Cl)c1)c1cc2ccccc2c(N=Nc2cc(Cl)ccc2Cl)c1O | 5 |
| CCC1CCC(=O)O1 (stereo unspecified) | 5 |
| CC(C)C[C@H](NC(=O)CNC(=O)[C@H](Cc1ccc(O)cc1)NC(=O)[C@H](CO)NC(=O)[C@H](Cc1c[nH]c2ccccc12)NC(=O)[C@H](Cc1cnc[nH]1)NC(=O)[C@@H]1CCC(=O)N1)C(=O)N[C@@H](CCCN=C(N)N)C(=O)N1CCC[C@H]1C(=O)NCC(N)=O | 5 |
| Cc1cc(O)cc(C)c1S(C)(=O)=O | 4 |
| CCCCC(=O)N(Cc1ccc(-c2ccccc2-c2nn[nH]n2)cc1)[C@H](C(=O)OCc1ccccc1)C(C)C | 4 |
| CCc1cc(C)cc(CC)c1-c1c(OC(=O)C(C)(C)C)n2n(c1=O)CCOCC2 | 5 |
| CC(C)C1=CC23CCC4C(C)(C(=O)N5CCNCC5)CCCC4(C)C2CC1C1C(=O)OC(=O)C13 (stereo unspecified) | 5 |
| COc1ccc2c(c1)CCN(c1ccccc1)C2c1cccc(Br)c1 (stereo unspecified) | 4 |
| COC1(C)CCCCCCCCCCC1 | 5 |

| Compound | GHS category |
| --- | --- |
| CCC(C)CCC(C)(CC)OC(C)=O (stereo unspecified) | 5 |
| CCCN(CC)CC1COC2(CCC(C(C)(C)C)CC2)O1 (stereo unspecified) | 4 |
| NCCC(=O)NC(Cc1cnc[nH]1)C(=O)O (stereo unspecified) | 5 |
| COC1=CC(=O)C[C@@H](C)[C@]12Oc1c(Cl)c(OC)cc(OC)c1C2=O | 5 |
| CCCCCCCCC(=O)OCC | 5 |
| Cc1cccc2ncc(C(=O)NC3CC3)c(=O)n12 | 3 |
| O=C=Nc1cccc2c(N=C=O)cccc12 | 5 |
| CC(Oc1cccc(Cl)c1)C(=O)O (stereo unspecified) | 4 |
| CCC(=O)OCC(=O)[C@@]1(OC(=O)CC)[C@@H](C)C[C@H]2[C@@H]3CCC4=CC(=O)C=C[C@]4(C)[C@@]3(F)[C@@H](O)C[C@@]21C | 5 |
| CC/C=C\CCOC(=O)Cc1ccccc1 | 5 |
| CCN(CC)CCC(C#N)(CC=C(C)C)c1cccc2ccccc12 (stereo unspecified) | 4 |
| CN(C)CCn1nnnc1SCC1=C(C(=O)O)N2C(=O)[C@@H](NC(=O)Cc3csc(N)n3)[C@H]2SC1 | 5 |
| CCOCCOCCOC(=O)C1CCC(C(=O)OCCOCCOCC)CC1 (stereo unspecified) | 5 |
| CC(C)=CCN(CC=C(C)C)CCC(C#N)(CCN(CC=C(C)C)CC=C(C)C)c1cccc2ccccc12 | 4 |
| c1ccc(C2=NN(c3ccccc3)C(c3ccccc3)C2)cc1 (stereo unspecified) | 5 |
| NNC(=O)CCCCC(=O)NN | 5 |
| CCOC(=O)c1cnn(C)c1S(=O)(=O)NC(=O)Nc1nc(OC)cc(OC)n1 | 5 |
| CS/C(=N\O)C(=O)N(C)C | 5 |
| COC[C@H]1CO[C@@](Cn2ccnc2)(c2cc3cc(Cl)cc(Cl)c3o2)O1 | 4 |
| COc1cc(OC)nc(NC(=O)NS(=O)(=O)Nc2ccccc2C(=O)N(C)C)n1 | 5 |
